In US20240301474A1, “NUCLEASES FOR SIGNAL AMPLIFICATION” (Amazon Technologies, Inc., priority 2021, published 2024):
“Also recorded” adds a separate entry of the source. {FAM} = 6-carboxyfluorescein (IDT 56-FAM); {IABkFQ} = Iowa Black FQ quencher

Assays:
TtCsm6 [1] = target: T1, TtCsm6 (Thermus thermophilus, UniProt Q53W17, G18R); conditions: 100 nM TtCsm6, 10 μM cA4, FIG. 22
Method: (§4) Varying concentrations of nuclease (SyCsx1, PfuCsx1, or TtCsm6) in reaction buffer (2.1 NEB Buffer-50 mM NaCl, 10 mM Tris-HCl, 10 mM MgCl2, 100 μg/ml BSA) with 1 U/μl murine RNase inhibitor (NEB) and 600 nM FAM-Q reporter (IDT) was mixed with varying concentrations of cA3, cA4, cA6, rA3>P or rA4>P (Biolog or IDT). Negative control was water free of activator. Measurements were taken at 37° C. every 1 min in a Tecan Infinite 200 PRO plate reader (λex, 485 nm; λem, 535 nm).
(§5) The objective of these experiments was to determine the preferred reporters for SyCsx1, PfuCsx1, and TtCsm6 incubated with cyclic activator cA4.

SyCsx1 [2] = assay: Reporter preference assay, SyCsx1 activated by cA4; conditions: 100 nM SyCsx1, 10 μM cA4, FIG. 20
Method: as §4, §5

PfuCsx1 [3] = assay: Reporter preference assay, PfuCsx1 activated by cA4; conditions: 100 nM PfuCsx1, 10 μM cA4, FIG. 21
Method: as §4, §5

SyCsx1 [4] = assay: Limit of detection (LoD) assay, SyCsx1 activated by rA4>P; conditions: 10 nM SyCsx1, FAM-Q polyC reporter; 0.1, 1, 10 nM tested; FIG. 17
Method: as §4

TtCsm6 [5] = target: T1, TtCsm6; assay: Limit of detection (LoD) assay, TtCsm6 activated by rA4>P; conditions: 100 nM TtCsm6, FAM-Q polyC reporter; 0.01, 0.1, 1, 10 μM tested; FIG. 19
Method: as §4

PfuCsx1 [6] = assay: Limit of detection (LoD) assay, PfuCsx1 activated by rA4>P; conditions: 100 nM PfuCsx1, FAM-Q polyA reporter; 0.01, 0.1, 1, 10 μM tested; FIG. 18
Method: as §4

TtCsm6 [7] = target: T1, TtCsm6; assay: Activation of TtCsm6 by linear and cyclic activators (fluorescence); conditions: 100 nM TtCsm6, RNAse Alert (IDT) reporter, FIG. 16
Method: (§6) The objective of these experiments was to assess activation of SyCsx1, PfuCsx1, and TtCsm6 by incubating the nucleases with cyclic or linear activators.
as §4

SyCsx1 [8] = assay: Activation of SyCsx1 by linear and cyclic activators (FAM-Q fluorescence); conditions: 100 nM SyCsx1, FAM-Q polyC ssRNA reporter; for activation of SyCsx1 (fluorescence time course): 37° C., FIG. 14A/14B; for rapidity of SyCsx1 activation (time until maximum fluorescence): FIG. 14B
Method: as §6, §4

PfuCsx1 [9] = assay: Activation of PfuCsx1 by linear and cyclic activators (FAM-Q fluorescence); conditions: 100 nM PfuCsx1, FAM-Q polyA ssRNA reporter, FIG. 15
Method: as §6, §4

NucC enzyme = NucC enzyme (Escherichia coli, UniProt D7Y2H5); assay: NucC activation by cyclic and linear activator with dsM13 plasmid; format: biochemical; conditions: 10 nM NucC, 10 nM activator, 37° C., 4 hours
Method: The objective of this experiment was to achieve activation of the NucC enzyme by incubating this enzyme with its cyclic (c-triAMP) and linear (triAMP)>P activator and the dsM13 plasmid.
The conditions that were tested are outlined in Table 14 below.
A NucC Mix (dsM13) was prepared as outlined in Table 15 below.
The mixture described in Table 15 was divided into two PCT tubes. The mixture was then incubated at 37° C. for 4 hours. Next, the samples were run on a 1.5% agarose gel.

[10] = tested on: dsM13 (M13mp18 RF I plasmid); assay: NucC activity assay with M13 plasmid (double-stranded); format: biochemical; conditions: 10 nM NucC, 10 nM c(triAMP), 37° C., 2:30 hours, 1% agarose gel
Method: (§1) The objective of this experiment was to determine whether the NucC enzyme cleaves both double-stranded DNA and single-stranded DNA by incubating the enzyme with its cyclic activator (c-triAMP) and the dsM13 or ssM13 plasmid.
(§2) The conditions that were tested are outlined in Table 11 below.
A first NucC Mix (dsM13) was prepared as outlined in Table 12 below.
(§3) Each mixture described in Table 12 and Table 13 was divided into two PCT tubes. The mixture was then incubated at 37° C. for 2:30 hours. Next, the samples were run on a 1% agarose gel.

[11] = tested on: ssM13 (M13mp18 single-stranded plasmid); assay: NucC activity assay with M13 plasmid (single-stranded); format: biochemical; conditions: 10 nM NucC, 10 nM c(triAMP), 37° C., 2:30 hours, 1% agarose gel
Method: as §1, §2
A second NucC Mix (ssM13) was prepared as outlined in Table 13 below.
as §3

Sequence of PfuCsx1 (as listed by the source): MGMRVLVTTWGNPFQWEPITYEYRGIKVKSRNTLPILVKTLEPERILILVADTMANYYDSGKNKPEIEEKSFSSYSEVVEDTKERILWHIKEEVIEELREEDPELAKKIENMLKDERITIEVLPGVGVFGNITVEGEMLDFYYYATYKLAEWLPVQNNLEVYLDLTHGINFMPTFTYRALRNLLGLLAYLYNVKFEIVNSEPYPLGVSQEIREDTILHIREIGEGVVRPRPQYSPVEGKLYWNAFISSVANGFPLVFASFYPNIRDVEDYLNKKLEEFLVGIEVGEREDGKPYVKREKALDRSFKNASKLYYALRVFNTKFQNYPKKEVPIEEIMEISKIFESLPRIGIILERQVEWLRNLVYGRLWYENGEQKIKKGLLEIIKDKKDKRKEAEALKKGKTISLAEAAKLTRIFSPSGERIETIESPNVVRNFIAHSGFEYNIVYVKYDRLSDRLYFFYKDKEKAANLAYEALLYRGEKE
Sequence of SyCsx1 (as listed by the source): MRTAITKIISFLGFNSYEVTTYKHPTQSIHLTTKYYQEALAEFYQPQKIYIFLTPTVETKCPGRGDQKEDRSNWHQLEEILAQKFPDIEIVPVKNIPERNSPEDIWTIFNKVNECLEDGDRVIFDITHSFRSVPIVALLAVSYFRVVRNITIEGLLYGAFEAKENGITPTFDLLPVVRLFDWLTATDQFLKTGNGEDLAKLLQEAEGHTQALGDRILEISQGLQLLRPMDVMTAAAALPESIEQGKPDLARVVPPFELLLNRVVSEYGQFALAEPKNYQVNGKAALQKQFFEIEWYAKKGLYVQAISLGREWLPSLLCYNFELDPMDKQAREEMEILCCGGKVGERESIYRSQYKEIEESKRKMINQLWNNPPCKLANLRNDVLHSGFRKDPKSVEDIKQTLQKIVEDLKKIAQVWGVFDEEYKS
T1 sequence (Q53W17 whole entry G18R): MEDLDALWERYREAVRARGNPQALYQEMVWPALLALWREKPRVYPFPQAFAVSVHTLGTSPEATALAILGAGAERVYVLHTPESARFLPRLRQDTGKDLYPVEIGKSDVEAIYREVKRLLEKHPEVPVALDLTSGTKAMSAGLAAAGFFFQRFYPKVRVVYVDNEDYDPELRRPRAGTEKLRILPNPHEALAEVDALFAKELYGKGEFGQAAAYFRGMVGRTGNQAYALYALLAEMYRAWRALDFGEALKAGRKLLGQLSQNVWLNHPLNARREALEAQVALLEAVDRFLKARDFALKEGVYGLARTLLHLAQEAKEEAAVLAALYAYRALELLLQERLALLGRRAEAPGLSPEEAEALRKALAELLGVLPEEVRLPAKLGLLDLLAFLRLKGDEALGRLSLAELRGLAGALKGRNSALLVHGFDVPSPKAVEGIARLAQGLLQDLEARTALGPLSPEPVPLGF

## 5′-/56 FAM/rArUrGrUrCrCrCrCrUrGrArA/3IABKFQ/-3′ (AUGUCCCCUGAA; RNA, 5' {FAM}, 3' {IABkFQ}, backbone not given here) [FAM-Q UCU]
TtCsm6 [1]
  reporter preference upon cleavage by TtCsm6: best reporters
SyCsx1 [2]
  reporter preference upon cleavage by SyCsx1: best reporters
PfuCsx1 [3]
  reporter preference upon cleavage by PfuCsx1: best reporters

## linear tetraAMP>P [rA4>P]
SyCsx1 [4]
  activator concentration that activates SyCsx1 (detection limit): 0.1 nM
TtCsm6 [5]
  activator concentration that activates TtCsm6 (detection limit): ≥ 1 µM
PfuCsx1 [6]
  activator concentration that activates PfuCsx1 (detection limit): ≥ 1 µM
TtCsm6 [7]
  activation of TtCsm6 (fluorescence time course): activated
SyCsx1 [8]
  activation of SyCsx1 (fluorescence time course): activated
  rapidity of SyCsx1 activation (time until maximum fluorescence): most rapid activations
PfuCsx1 [9]
  activation of PfuCsx1 (fluorescence time course): activated

## cyclic hexaAMP [cA6]
SyCsx1 [8]
  activation of SyCsx1 (fluorescence time course): activated

## cyclic tetraAMP [cA4]
TtCsm6 [7]
  activation of TtCsm6 (fluorescence time course): activated
SyCsx1 [8]
  activation of SyCsx1 (fluorescence time course): activated
  rapidity of SyCsx1 activation (time until maximum fluorescence): most rapid activations
PfuCsx1 [9]
  activation of PfuCsx1 (fluorescence time course): activated

## cyclic triAMP [c-triAMP]
NucC enzyme; FIG. 13
  degradation of the dsM13 plasmid by NucC in the presence of activator: complete degradation
NucC enzyme; dsM13 plasmid, 1.5% agarose gel
  activation of the NucC enzyme: achieved; also recorded: activated

## linear triAMP>P [rA3>P]
SyCsx1 [8]
  activation of SyCsx1 (fluorescence time course): activated

B1: NucC: nuclease; amino acid sequence SEQ ID NO: 2 (NucC wild sequence) (protein, listed as Escherichia coli)
chain: MSDWSLSQLFASLHEDIQLRLGTARKAFQHPGAKGDASEGVWIEMLDTYLPKRYQAANAFVVDSLGNFSDQIDVVVFDRQYSPFIFKFNEQIIVPAESVYAVFEAKQSASADLVAYAQRKVASVRRLHRTSLPIPHAGGTYPAKPLIPILGGLLTFESDWSPALGMSFDKALNGDLSDGRLDMGCVASHGHFYFNNIDSKFNFEHGNKPATAFLFRLIAQLQFSGTVPMIDIDAYGKWLAN
[10]
  cleavage of double-stranded DNA: cleaved
[11]
  cleavage of single-stranded nucleic acid: not
